Test results taken from patent publication US10793915B2, “Context dependent diagnostics test for guiding cancer treatment” (Eutropics Pharmaceuticals, Inc., priority 2015, dated 2020).

Key:
[1] = system: AML blasts from patient peripheral blood or bone marrow; experiment: BH3 profiling (mitochondrial profiling): JC-1 mitochondrial depolarization (% priming) of gated AML blasts exposed to BH3 peptides; format: cell-based, human; conditions: for Median CR (n = 23) / Median CR (n = 13): complete remission patients; for Median NR (n = 29) / Median NR (n = 18): non-responders
Procedure: Rows that are shaded grey are samples that failed the acceptance criteria of BH3 profiling during processing. […] Signal to noise is a measure of the DMSO JC-1 red mean fluorescence intensity (MFI) over the CCCP JC-1 read MFI. The cell counts and percent viability were determined by manual cell counting with trypan blue exclusion. Percent blasts are the percentages of CD45-dim, CD3/CD20 negative, and SSC-low of the permeabilized viable cells. All BH3 profiling was performed on those gated blast cells.
Briefly, frozen, extracted leukocyte samples were rapidly thawed, and cell viability was determined by Trypan Blue exclusion. Cells were washed in FACS buffer (1x PBS with 2% FBS) and immunophenotyped using fluorescently labeled CD45, CD3, and CD20 monoclonal antibodies. Cells were then resuspended in Newmeyer buffer (10 mM Trehalose, 10 mM HEPES, 80 mM KCl, 20 μM EGTA, 20 μM EDTA, 5 mM succinate, pH 7.4) for the perturbation step. The BH3 peptides were diluted in Newmeyer buffer to make working solutions resulting in final concentrations of: BIM (100 μM), BIM (0.1 μM), NOXA (100 μM), Puma (10 μM), HRK (100 μM), BAD (100 μM), and BID (1.0 μM). DMSO and CCCP were used as negative and positive peptide controls. Digitonin and oligomycin were added to individual FACS tubes, followed by the BH3 peptides. Cells were then added to the FACS tubes and incubated for 2 hours and 15 minutes at room temperature, in order for cell permeabilization, delivery of peptides or compounds, and mitochondrial depolarization to occur. After the incubation, JC-1 dye was prepared in Newmeyer buffer and added to directly to the treated cells. An additional tube of cells that was not treated with a peptide or compound was stained with propidium iodide (PI) to ensure that cells were effectively permeabilized by the digitonin. After 45 minutes of incubation with JC-1, cells were analyzed on a three laser BD FACSCanto II. AML Blasts were gated based on four parameters: 1) permeabilization (as determined by PI staining), 2) singlet discrimination based on SSC, 3) CD45 dim and CD3/CD20 negative, and 4) SSC low. The median JC-1 red fluorescence of the gated blast population was then used to calculate % depolarization as compared to DMSO (negative) and CCCP (positive) controls.
For each peptide, the percentage priming was calculated using the following formula that determines the priming based on the DMSO negative control as completely unprimed and the CCCP as a 100% primed reference:
For analysis, all patients not classified as CR were treated as non-responders [Minimal Residual Disease (MRD), Partial Remission (PR), and TF (treatment failure)]. Student's t-tests, Mann-Whitney rank-sum non-parametric tests, multi-variate logistic regression, and ROC curve analyses, between the BH3 peptides (and other tumor characteristics, such as cytogenetics, etc.) and response, were calculated using GraphPad Prism Version 5.04 and MedCalc Version 14.8.1.

[2] = system: three suspension cancer cell lines; experiment: PraediCare Dx FACS BH3 profiling with BH3 mimetic compound applied to permeabilized cells; format: cell-based; conditions: cell lines primed by NOXA
Description: To further probe MCL-1 dependencies we explored the utility of certain BH3 mimetic compounds to provide an alternative to the NOXA readout to determine MCL-1 dependency in cancer cells. Our approach was to directly apply membrane permeable BH3 mimetic compounds that selectively target MCL1. Doing so would add the advantage of directly observing on target activity of the therapeutic agent.

[3] = Table 6, median percentage priming, all samples
[4] = Table 8, median percentage priming, bone marrow samples only
[5] = median percentage priming, bone marrow samples only

Row | Compound | Median CR (n = 23) [1, 3] | Median NR (n = 29) [1, 3] | Median CR (n = 13) [1, 4] | Median NR (n = 18) [1, 4] | median depolarization (priming) ([1]; all responses, all profiled patient samples) [%] | NOXA priming in patients that did not respond ([1]; bone marrow samples only) [%] | NOXA priming in patients that respond to treatment ([1]; bone marrow samples only) [%] | Median CR (n = 23) ([1]; median percentage priming of blasts, all samples (blood and marrow)) | Median NR (n = 29) ([1]; median percentage priming of blasts, all samples (blood and marrow), BIM 100/0.1 μM, NOXA 100 μM, Puma 10 μM, HRK 100 μM, BAD 100 μM, BID 1.0 μM) | Median CR (n = 13) [1, 5] | Median NR (n = 18) [1, 5] | mitochondrial response to the compound (priming) [2]
1 | NOXA: NOXA BH3 peptide, 100 μM; in some aspects AELPPEFAAQLRKIGDKVYC (SEQ ID NO:1) (listed as Homo sapiens) | 17.2 | 20.2 | 44.5 | 5.2 | 16.0 | 5.2 | 44.5 | 17.2 | 20.2 | 44.5 | 5.2 | 
2 | CCN1CCN(C(c2ccc(C(F)(F)F)cc2)c2ccc3cccnc3c2O)CC1 (stereo not drawn) [EU5346] |  |  |  |  |  |  |  |  |  |  |  | responsive
